According to patent US20060084704A1, “Methods and compositions for enhancing degradation of nuclear receptor transcription factors and uses thereof” (priority 2004, published 2006):
“Also recorded” adds a separate entry of the source.

System: testosterone-induced hair growth suppression
Assay: Androgen-induced alopecia model, hair re-growth in shaved mice
Assay type: in vivo, C57BL/6J mice
Conditions: topical testosterone 1% in the morning, JC9 0.02% in the afternoon, 20 days
Procedure: C57BL/6J mice were used in this animal model for hair loss and regrowth (Uno et al. (1990) J. Cutaneous Aging & Cosm. Derm., 1: 193, which is incorporated by reference in its entirety herein). Six-week-old male mice (6 to 7 animals per group) were shaved with an electric clipper, and then treated with a hair-removal cream for 1 to 2 minutes. […] One day after hair removal, a first group of animals each received 100 microliters of a 1% testosterone solution in ethanol, applied topically to the shaved area, once each morning for twenty consecutive days. A second group of animals each received 100 microliters of vehicle (ethanol) alone, applied topically to the shaved area, once each morning for twenty consecutive days. The first group of mice (testosterone-treated) were divided further into a control group and a treatment group. Also beginning one day after hair removal, each mouse in the control group received 100 microliters of a control solution (60% ethanol, 20% propylene glycol, and 20% water) and each mouse in the treatment group received 100 microliters of the test compound, JC9 (0.02% in the same 60% ethanol, 20% propylene glycol, and 20% water solution), applied topically to the shaved area, once each afternoon for twenty consecutive days. Hair re-growth in the shaved areas was observed and photographed at 12, 15, 18, 21, and 24 days after beginning of the topical treatments.

COc1ccc(C=CC(=O)C=C(O)C=Cc2ccc(OC)c(OC)c2)cc1OC [JC9, 5-hydroxy-1,7-bis(3,4-dimethoxyphenyl)-1,4,6-heptatrien-3-one]
hair re-growth in shaved areas: rapid re-growth of hair in the shaved areas from day 10 to day 20; also recorded: hair growth on day 8 and fully re-growth of hair in the shaved areas after 20 days
